Read-outs that look alike come from different tables or passages of the source.
Biological target: T1, TYK2 (Homo sapiens, UniProt P29597)
T1 construct: Degradation of TYK2 in cells was quantitatively measured using Meso Scale Discovery (MSD) technology; endogenous in cells; host or cells: OCI-LY10
Experiment: TYK2 MSD degradation in OCI-LY10 cells
Format: cell-based
Settings: 4 to 24 hours incubation; for DC50: read-out: TYK2 MSD OCI-LY10 Rel-DC50
Outline: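 OCI-LY10 cells were treated with 9-dose 1:3 series (top 1 to 10 μM final) for 4 to 24 hours at 37° C. Lysate TYK2 quantified by MSD sandwich immunoassay; DC50 and Dmax from four-parameter inhibitor vs. response fit.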

[1] = TYK2 degradation in OCI-LY10 cells

T1 sequence (P29597 whole entry): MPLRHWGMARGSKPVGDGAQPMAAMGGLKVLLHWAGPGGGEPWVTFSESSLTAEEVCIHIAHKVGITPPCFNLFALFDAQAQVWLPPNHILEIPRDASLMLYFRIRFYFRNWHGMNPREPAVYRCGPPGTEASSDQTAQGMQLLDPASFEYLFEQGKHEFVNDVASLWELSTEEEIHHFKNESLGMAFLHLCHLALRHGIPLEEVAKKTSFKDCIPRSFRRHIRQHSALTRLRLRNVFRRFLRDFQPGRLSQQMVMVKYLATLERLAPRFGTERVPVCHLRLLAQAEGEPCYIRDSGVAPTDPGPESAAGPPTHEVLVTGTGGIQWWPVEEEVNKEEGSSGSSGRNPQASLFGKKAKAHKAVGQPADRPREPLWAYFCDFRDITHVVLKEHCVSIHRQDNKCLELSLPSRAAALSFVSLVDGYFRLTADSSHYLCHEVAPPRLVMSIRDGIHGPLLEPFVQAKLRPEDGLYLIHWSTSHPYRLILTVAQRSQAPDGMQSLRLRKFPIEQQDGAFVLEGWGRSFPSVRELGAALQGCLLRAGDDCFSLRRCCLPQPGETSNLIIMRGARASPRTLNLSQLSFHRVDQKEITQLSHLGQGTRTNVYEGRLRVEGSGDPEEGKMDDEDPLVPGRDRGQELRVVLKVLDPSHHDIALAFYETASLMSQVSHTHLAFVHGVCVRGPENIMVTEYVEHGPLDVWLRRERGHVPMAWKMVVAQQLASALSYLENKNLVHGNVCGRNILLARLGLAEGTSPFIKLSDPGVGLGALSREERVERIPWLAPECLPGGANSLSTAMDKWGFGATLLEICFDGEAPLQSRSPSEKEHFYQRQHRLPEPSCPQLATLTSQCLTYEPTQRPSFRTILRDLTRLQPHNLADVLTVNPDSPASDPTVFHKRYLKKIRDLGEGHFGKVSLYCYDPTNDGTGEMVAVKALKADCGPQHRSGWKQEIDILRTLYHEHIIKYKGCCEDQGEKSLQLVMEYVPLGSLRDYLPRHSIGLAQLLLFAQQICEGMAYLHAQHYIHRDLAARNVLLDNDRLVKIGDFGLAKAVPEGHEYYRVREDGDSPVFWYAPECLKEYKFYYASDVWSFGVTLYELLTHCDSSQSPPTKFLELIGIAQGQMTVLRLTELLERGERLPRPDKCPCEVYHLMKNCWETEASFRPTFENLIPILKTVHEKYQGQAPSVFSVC

SMILES	TYK2 MSD OCI-LY10 Dmax % (OCI-LY10 cells)	DC50 (OCI-LY10 cells) [nM]	TYK2 MSD OCI-LY10 Dmax % [1]	DC50 [1] [nM]	Dmax (OCI-LY10 cells) [%]
CNc1cc(N2CCc3c(CN4CCC(N5CCC6(CCN(C(=O)c7cc(C)c(Cl)c(N8CCC(=O)NC8=O)c7)CC6)CC5)C(F)(F)C4)cccc32)nn2c(C(=O)N[C@@H]3C[C@@H]3F)cnc12 (stereo partly shown) [I-713]	B (B (90 to >75%))	< 10			
CNc1cc(N2CCc3c(CN4CCC(N5CCC(N6CCN(c7ccc8c(c7)n(C)c(=O)n8C7CCC(=O)NC7=O)CC6)CC5)C(F)(F)C4)cccc32)nn2c(C(=O)N[C@@H]3C[C@@H]3F)cnc12 (stereo partly shown) [I-347]			B (B (90 to >75%))	< 1	
CNc1cc(N2CCc3c([C@H](C)N4CC[C@H](N5CCC6(CCN(C(=O)c7cc(C)c(Cl)c(N8CCC(=O)NC8=O)c7)CC6)CC5)C(F)(F)C4)cccc32)nn2c(C(=O)N[C@@H]3CC[C@H]3OC)cnc12 [I-1127]			A (A (>90%))	< 1	
CNc1cc(N2CCc3c(-c4ncc(CN5CC6(CCN(C(=O)c7ccc(Cl)c(N8CCC(=O)NC8=O)c7)CC6(F)F)C5)cc4F)cccc32)nn2c(C(=O)N[C@@H]3CC[C@H]3OC)cnc12 [I-1154]			A (A (>90%))	< 1	
CNc1cc(N2CCc3c(C#CCN4CCC(N5CCC6(CCN(c7ccc8c(c7)n(C)c(=O)n8C7CCC(=O)NC7=O)CC6)CC5)C(F)(F)C4)cccc32)nn2c(C(=O)N[C@@H]3C[C@@H]3F)cnc12 (stereo partly drawn) [I-486, 6-(4-(3-(4-(9-(1-(2,6-Dioxopiperidin-3-yl)-3-methyl-2-oxo-2,3-dihydro-LH-benzo[d]imidazol-5-yl)-3,9-diazaspiro[5.5]undecan-3-yl)-3,3-difluoropiperidin-1-yl)prop-1-yn-1-yl)indolin-1-yl)-N-((1R,2S)-2-fluorocyclopropyl)-8-(methylamino)imidazo[1,2-b]pyridazine-3-carboxamide]		< 10			75 to 90
CNc1cc(N2CCc3c(CN4CCC(N5CCC6(CCN(C(=O)c7cc(F)c(C)c(N8CCC(=O)NC8=O)c7)CC6)CC5)C(F)(F)C4)cccc32)nn2c(C(=O)N[C@@H]3C[C@@H]3F)cnc12 (stereo partly shown) [I-843]			A (A (>90%))	< 1	
CNc1cc(N2CCc3c(-c4ccc(CN5CCC(N6CCN(CCc7ccc(Cl)c(C8CCC(=O)NC8=O)c7)CC6)C(F)(F)C5)cn4)cccc32)nn2c(C(=O)NC3CC3F)cnc12 (stereo not shown) [I-902]			B (B (90 to >75%))	< 10	
CNc1cc(N2CCc3c(-c4ccc(CN5CCC6(CC5)CC(Oc5ccc(N7CCC(=O)NC7=O)c(Cl)c5)C6)cn4)cccc32)nn2c(C(=O)N[C@@H]3C[C@@H]3F)cnc12 [I-898]			D (D (<50%))	> 100	
CNc1cc(N2CCc3c(CN4CCC(CN5CCC(N(C)c6ccc(Cl)c(N7CCC(=O)NC7=O)c6)CC5)C(F)(F)C4)cccc32)nn2c(C(=O)N[C@@H]3C[C@@H]3F)cnc12 (stereo partly shown) [I-751]	B (B (90 to >75%))	< 10			
CNc1cc(N2CCc3c(-c4ncc(CN5CC6(CCN(C(=O)c7ccc(C)c(N8CCC(=O)NC8=O)c7)CC6(F)F)C5)cc4F)cccc32)nn2c(C(=O)N[C@@H]3C[C@@H]3F)cnc12 [I-1018]			A (A (>90%))	< 1	
CNc1cc(N2CCc3c(-c4ccc(CN5CC6(CCN(Cc7cc(N8CCC(=O)NC8=O)c(Cl)cc7C)CC6(F)F)C5)cn4)cccc32)nn2c(C(=O)N[C@@H]3C[C@@H]3F)cnc12 [I-456]	D (D (<50%))	> 100			
CNc1cc(N2CCc3c(-c4ccc(CN5CCC(N6CCC7(CC6)CN(c6ccc8c(c6)n(C)c(=O)n8C6CCC(=O)NC6=O)C7)C(F)(F)C5)cn4)cccc32)nn2c(C(=O)NC3CC3)cnc12 (stereo not shown) [I-47]			B (B (90 to >75%))	< 10	
CNc1cc(N2CCc3c(C#CCN4CCN(C5CCN(C(=O)c6ccc(Cl)c(N7CCC(=O)NC7=O)c6)CC5(F)F)CC4)cccc32)nn2c(C(=O)NC3CC3F)cnc12 (stereo not shown) [I-846]			A (A (>90%))	< 1	
CNc1cc(N2CCc3c(-c4ccc(CN5CCC6(C5)CN(C(=O)c5ccc(Cl)c(N7CCC(=O)NC7=O)c5)C6)cn4)cccc32)nn2c(C(=O)NC3CC3F)cnc12 (stereo not shown) [I-297]			C (C (75 to 50%))	< 10	
CNc1cc(N2CCc3c2ccc(C)c3CN2CCC(N3CCC4(CCN(C(=O)c5ccc(Cl)c(N6CCC(=O)NC6=O)c5)CC4)CC3)C(F)(F)C2)nn2c(C(=O)N[C@@H]3C[C@@H]3F)cnc12 (stereo partly shown) [I-755]	C (C (75 to 50%))	10 to 100			
CNc1cc(N2CCc3c(CN4CCC(N5CCC(CN6CCN(C(=O)c7ccc(Cl)c(N8CCC(=O)NC8=O)c7)CC6)CC5)C(F)(F)C4)cccc32)nn2c(C(=O)N[C@@H]3C[C@@H]3F)cnc12 (stereo partly shown) [I-716]	B (B (90 to >75%))	< 1			
CNc1cc(N2CCc3c(-c4ccc(CN5CC6(CCN(C(=O)c7ccc(Cl)c(N8CCC(=O)NC8=O)c7)CC6(F)F)C5)cn4)cccc32)nn2c(C(=O)NC3CC(F)(F)C3)cnc12 [I-653]	B (B (90 to >75%))	< 10			
CNc1cc(N2CCc3c(-c4ncc(CN5CC6(CCN(C(=O)c7cc(C)c(Cl)c(N8CCC(=O)NC8=O)c7)CC6(F)F)C5)cc4F)cccc32)nn2c(C(=O)NC3CCCC3)cnc12 [I-990]			B (B (90 to >75%))	< 10	
CNc1cc(N2CCc3c(C4CCN(CC5CCC6(CC5)CCN(C(=O)c5ccc(Cl)c(N7CCC(=O)NC7=O)c5)CC6)CC4)cccc32)nn2c(C(=O)NC3CC3)cnc12 [I-56]			C (C (75 to 50%))	< 10	
CNc1cc(N2CCc3c(-c4ccc(CN5CCC6(CCN(C(=O)c7cc(C)c(Cl)c(N8CCC(=O)NC8=O)c7)CC6)C(F)(F)C5)cn4)cccc32)nc2c(C(=O)N[C@@H]3C[C@@H]3F)cnn12 [I-816]			B (B (90 to >75%))	< 10	
CNc1cc(N2CCc3c(CN4CCC(N5CCC6(CCN(C(=O)c7cc(N8CCC(=O)NC8=O)c(C)c(Cl)c7F)CC6)CC5)C(F)(F)C4)cccc32)nn2c(C(=O)N[C@@H]3CC[C@H]3OC)cnc12 (stereo partly shown) [I-1125]			A (A (>90%))	< 1	
CNc1cc(N2CCc3c2ccc(F)c3-c2ccc(CN3CCC4(CCN(C(=O)c5cc(C)c(Cl)c(N6CCC(=O)NC6=O)c5)CC4)C(F)(F)C3)cn2)nn2c(C(=O)N[C@@H]3C[C@@H]3F)cnc12 [I-742]	C (C (75 to 50%))	10 to 100			
CNc1cc(N2CCc3c(CCN4CCC5(CC4)CCN(C(=O)c4ccc(Cl)c(N6CCC(=O)NC6=O)c4)CC5)cccc32)nn2c(C(=O)N[C@@H]3C[C@@H]3F)cnc12 [I-895]			D (D (<50%))	> 100	
CNc1cc(N2CCc3c(-c4ccc(CN5CCC6(CCN(C(=O)c7cc(F)c(Cl)c(N8CCC(=O)NC8=O)c7)CC6)C(F)(F)C5)cn4)cc(F)cc32)nn2c(C(=O)N[C@@H]3CC[C@H]3OC)cnc12 [I-744]	B (B (90 to >75%))	< 10			
CNc1cc(N2CCc3c(-c4ncc(CN5CC6(CCN(C(=O)c7cc(C)c(C)c(N8CCC(=O)NC8=O)c7)CC6(F)F)C5)cc4F)cccc32)nn2c(C(=O)N[C@@H]3C[C@@H]3F)cnc12 [I-989]			A (A (>90%))	< 1	
CNc1cc(N2CCc3c(-c4ncc(CN5CC6(CCN(C(=O)c7cc(N8CCC(=O)NC8=O)c(C)cn7)CC6(F)F)C5)cc4F)cccc32)nn2c(C(=O)N[C@@H]3C[C@@H]3F)cnc12 [I-1012]			A (A (>90%))	< 1	

From patent US20260125400A1, “TYK2 DEGRADERS AND USES THEREOF” (Kymera Therapeutics, Inc., priority 2023, published 2026)
